{"source": "ChEMBL document CHEMBL1152097", "about": "“Preparation of neurotensin analogs with a novel pro-tyr replacement” (Bioorg Med Chem Lett, 1995)", "molecular_target": "Neurotensin receptor type 1 (Rattus norvegicus, UniProt P20789)", "sequence (P20789 whole entry)": "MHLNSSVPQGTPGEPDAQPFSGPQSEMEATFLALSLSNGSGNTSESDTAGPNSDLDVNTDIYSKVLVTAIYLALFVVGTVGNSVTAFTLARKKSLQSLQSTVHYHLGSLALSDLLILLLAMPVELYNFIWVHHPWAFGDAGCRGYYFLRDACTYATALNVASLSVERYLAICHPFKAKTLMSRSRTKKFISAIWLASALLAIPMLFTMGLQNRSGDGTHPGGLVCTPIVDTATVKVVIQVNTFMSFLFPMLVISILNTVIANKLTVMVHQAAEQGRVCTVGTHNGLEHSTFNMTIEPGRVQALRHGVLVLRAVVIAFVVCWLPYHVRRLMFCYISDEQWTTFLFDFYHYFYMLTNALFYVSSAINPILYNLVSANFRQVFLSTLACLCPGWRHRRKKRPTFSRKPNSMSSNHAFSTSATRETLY", "experiment": "Tested for binding affinity against Neurotensin receptor"}
{"smiles": "CC[C@H](C)[C@H](NC(=O)N(Cc1ccc(O)cc1)c1cccc(NC[C@H](CCCCN)NC(=O)OC(C)(C)C)c1)C(=O)N[C@@H](CC(C)C)C(=O)O", "values": [{"measurement": "Ki", "result": 730, "unit": "nM"}]}
{"smiles": "CC[C@H](C)[C@H](NC(=O)N(Cc1ccc(O)cc1)c1cccc(NC(=O)[C@H](CCCCN)NC(=O)OC(C)(C)C)c1)C(=O)N[C@@H](CC(C)C)C(=O)O", "values": [{"measurement": "Ki", "result": 1250, "unit": "nM"}]}
{"smiles": "CC[C@H](C)[C@H](NC(=O)N(Cc1ccc(F)cc1)c1cccc(NC(=O)[C@H](CCCCN)NC(=O)OC(C)(C)C)c1)C(=O)N[C@@H](CC(C)C)C(=O)O", "values": [{"measurement": "Ki", "result": 890, "unit": "nM"}]}
{"smiles": "CC[C@H](C)[C@H](NC(=O)N(Cc1ccc(O)cc1)c1cccc(NC(=O)[C@H](CCCCN)NC(=O)OC(C)(C)C)c1F)C(=O)N[C@@H](CC(C)C)C(=O)O", "values": [{"measurement": "Ki", "result": 2200, "unit": "nM"}]}
{"smiles": "CC[C@H](C)[C@H](NC(=O)N(Cc1ccc(O)cc1)c1ccc(F)c(NC(=O)[C@H](CCCCN)NC(=O)OC(C)(C)C)c1)C(=O)N[C@@H](CC(C)C)C(=O)O", "values": [{"measurement": "Ki", "result": "> 10000", "unit": "nM"}]}
{"smiles": "CC[C@H](C)[C@H](NC(=O)[C@H](Cc1ccc(O)cc1)c1cccc(NC(=O)[C@H](CCCCN)NC(=O)OC(C)(C)C)c1)C(=O)N[C@@H](CC(C)C)C(=O)O", "values": [{"measurement": "Ki", "result": 29, "unit": "nM"}]}
